From patent US6664241B2, “Water-soluble amide derivatives of polyene macrolides and preparation and uses thereof” (Micrologix Biotech Inc., priority 2000, dated 2003) come the findings set out here.

Molecules are shown by their SMILES. Converted amounts (≈) assume the structure as drawn.

In series [1] the test system is C. albicans. Nature of the series: Minimum Inhibitory Concentrations (MICs) against C. albicans, NCCLS M27-A broth dilution. In kind it is cell-based. As to conditions: Candida albicans, read-out: MIC. As to the method: For each compound synthesized, Minimum Inhibitory Concentrations (MICs) against C. albicans were determined as described in Reference Method for Broth Dilution Antifungal Susceptibility Testing of Yeasts, Approved Standard, NCCLS document M27-A (ISBN 1-56238-328-0), NCCLS, 940 West Valley Road, Suite 1400, Wayne, Pa. 19087, 1997.
(In general: Dilution methods test growth across graded concentrations, often in twofold steps.)

Series [2] concerns C. albicans. Nature of the series: 5 day kidney bioburden evaluation in immunocompetent mice challenged with C. albicans. Type of series: in vivo, Swiss-Webster mice. To be noted: Candida albicans, ip, 120 h; intraperitoneally once daily for 5 days, immunocompetent mice, C. albicans; 50% of animals with 2 log10 reduction in kidney CFU; read-out: ED50 mice 5 day. As to the method:
(§1) A variety of the compounds synthesized as described in Section 5, supra, were tested in various in vivo assays, as described below. The results of the various assays are provided in TABLE 3, presented at the end of this section. In all of the in vivo assays described, the test compounds, in the form of the aspartate salts, were formulated in an aqueous vehicle (5% mannitol in sterile water; OSMITROL, Baxter Healthcare, Deerfield, Ill.), followed by appropriate dilutions. The formulations were prepared fresh before dosing.
(§2) AmB and AME were also tested for comparison. For AmB, the commercially available FUNGIZONE (Bristol-Meyers Squibb Co.) was used. Reported values are based upon the weight of the AmB active ingredient, not on the basis of the weight of the FUNGIZONE powder. AME was formulated in OSMITROL as described for the test compounds.
Various polyene macrolide amide derivatives of the invention were evaluated for their protective effect when administered intraperitoneally once daily for 5 days to immunocompetent mice challenged with live C. albicans.
C. albicans was grown on Sabouraud dextrose agar (SDA) plates for 48 hr. Colonies were harvested and washed twice by centrifugation in phosphate-buffered saline (PBS). The washed pellets were resuspended in PBS and diluted to achieve the desired number of fungi per milliliter. A portion of the inoculum was plated on SDA plates to determine the colony-forming units (CFU) per milliliter.
Swiss-Webster mice (Simonsen Laboratories, Gilroy, Calif.) were administered by intravenous injection a single inoculum (0.2 mL) containing as estimated 2.0×10^5 CFU of C. albicans. The day of inoculation was designated as study day 0. Beginning three days after injection, mice were treated intraperitoneally with vehicle alone or formulated test compound once daily for 5 consecutive days.
The mice were observed daily from study day 0 through study day 10 (3 days after the last dose). Mice found dead or euthanized in extremis were removed from the study without further processing. Surviving mice were euthanized by inhalation of CO2 on study day 10 and both kidneys from each mouse were removed. Each pair of removed kidneys was homogenized in 3 mL of ice-cold PBS containing 10% glycerol. A portion of each homogenate was used to determine log10 CFU per kidney using SDA plates (48 hours of incubation at 30° C.). Kidney log10 CFU data were analyzed using a t-test. The criterion for a statistically significant response was set at p<0.01.
For comparison, the results for AmB and AME are also provided. Efficacy was defined for individual animals as a greater than 2 log10 reduction in kidney CFU relative to the mean vehicle control value.

Series [3] can be described thus: Maximum non-lethal dose (NLD), single intravenous dose in mice. To be noted: test compounds as aspartate salts in 5% mannitol, AmB as FUNGIZONE
In kind it is in vivo, Swiss-Webster male mice. On the procedure: as §1, §2
Maximum non-lethal dose (NLD) data were obtained for selected compounds. A single intravenous dose was administered to each of four mice (Swiss-Webster male mice; Simonsen Laboratories, Gilroy, Calif.) in several groups. The doses selected were based upon the NLDs of compounds of similar structures. After review of findings, higher or lower doses were administered and a NLD was determined. The results are tabulated in TABLE 3, below (NLD Acute Mice). The values for AmB and AME are provided for comparison

Series [4] in a line: Two week range-finding toxicity study in mice. As to conditions: both sexes, CD-1, mouse, in vivo, iv. In kind it is in vivo, CD-1 mice. On the procedure: as §1, §2
Various polyene macrolide amide derivatives of the invention were evaluated to characterize their potential toxicity when administered subchronically by intravenous injection.
CD-1® mice (Charles River Laboratories, Portage, Mich.) were acclimated to laboratory conditions for at least 5 days before the start of dosing. During the acclimation period, the general condition of the mice was evaluated, and those considered healthy were used. The mice were randomly assigned to treatment groups using a stratified body weight regimen. Each treatment group consisted of 3 male and 3 female mice. The mice were housed in a room with a controlled environment and provided rodent chow and water ad libitum.
On the first day of dosing, the mice were approximately 7 to 9 weeks old and weighed 22 to 30 g. Doses were administered by intravenous injection once daily on study days 1 to 5 and 8 to 12. Dosages were selected based upon data from efficacy and toxicology studies, and ranged from 1.25 to 30 mg/kg/day. Clinical observations were recorded 0.5 hr after dosing on days 1, 3, 5, 8, 10, 12 and 15, and on any day a change was observed. Body weights were recorded prior to dosing and on study days 8 and 12, and on study day 15 at the completion of the in-life phase of the study.
Animals that were found in a moribund/deteriorating clinical state were euthanized (animal designated killed in extremis) by inhalation of CO2. The day of death for any animal found dead or killed in extremis was recorded. Any animal that died prematurely was removed from the study without further processing.
One day after completion of dosing (study day 16), all surviving mice were euthanized by inhalation of CO2. Their kidneys were preserved for histopathologic examination. The maximum no-observed-adverse-effect level (NOAEL) was determined on the basis of clinical and histopathologic findings. The values for AmB and AME are provided for comparison.

By MIC is commonly meant the least concentration at which growth counts as inhibited. Broadly, the ED50 is the dose at which the effect has come halfway, by size or by number of responders. `CC1[C@H](C)OC(=O)C[C@H](O)C[C@H](O)CC[C@@H](O)[C@H](O)C[C@H](O)C[C@]2(O)C[C@H](O)C(C(=O)NCC(O)C(O)C(O)C(O)CO)C(C[C@@H](OC3O[C@H](C)[C@@H](O)[C@H](NC[C@@]4(O)OC[C@@H](O)[C@@H](O)[C@@H]4O)[C@@H]3O)/C=C/C=C/C=C/C=C/C=C/C=C/C=C/[C@H](C)[C@H]1O)O2` (some centres unmarked) [Compound 103]: in series [1], the MIC is 1.1 µg/mL (≈ 0.88 µM). The median effective dose (ED50) in series [2] was found to be 15 mg/kg. In series [3], the NLD acute mice is listed as 10 mg/kg.
What is called NOAEL is the highest dose or exposure tested at which no adverse effect was seen. With `CC1[C@H](C)OC(=O)C[C@H](O)C[C@H](O)CC[C@@H](O)[C@H](O)C[C@H](O)C[C@]2(O)C[C@H](O)C(C(=O)N3CCN(C)CC3)C(C[C@@H](OC3O[C@H](C)[C@@H](O)[C@H](NC[C@@]4(O)OC[C@@H](O)[C@@H](O)[C@@H]4O)[C@@H]3O)/C=C/C=C/C=C/C=C/C=C/C=C/C=C/[C@H](C)[C@H]1O)O2` (some centres unmarked) [Compound 106], the minimum inhibitory concentration (MIC) in series [1] is 2 µg/mL (≈ 1.71 µM). Besides, the ED50 in series [2] turned out to be 3 mg/kg. Besides, the NLD acute mice in series [3] is under 15 mg/kg. Besides, the NOAEL at 2 week was determined as 3 mg/kg in series [4] (NOAEL 2 week mice clinical) and 6 mg/kg in series [4] (NOAEL 2 week mice histological).
As for `CC1[C@H](C)OC(=O)C[C@H](O)C[C@H](O)CC[C@@H](O)[C@H](O)C[C@H](O)C[C@]2(O)C[C@H](O)C(C(=O)NCCN3CCCCC3)C(C[C@@H](OC3O[C@H](C)[C@@H](O)[C@H](NC[C@@]4(O)OC[C@@H](O)[C@@H](O)[C@@H]4O)[C@@H]3O)/C=C/C=C/C=C/C=C/C=C/C=C/C=C/[C@H](C)[C@H]1O)O2` (some centres unmarked) [Compound 107], the MIC in series [1] amounted to 2 µg/mL (≈ 1.67 µM). The median effective dose (ED50) in series [2] was 28 mg/kg. The NLD acute mice in series [3] was over 40 mg/kg.
Consider `CC1[C@H](C)OC(=O)C[C@H](O)C[C@H](O)CC[C@@H](O)[C@H](O)C[C@H](O)C[C@]2(O)C[C@H](O)C(C(=O)NCC(O)C(O)C(O)C(O)CO)C(C[C@@H](OC3O[C@H](C)[C@@H](O)[C@H](NC[C@@]4(O)OC[C@@H](O)[C@H](O)[C@@H]4O)[C@@H]3O)/C=C/C=C/C=C/C=C/C=C/C=C/C=C/[C@H](C)[C@H]1O)O2` (some centres unmarked) [Compound 110], for which the MIC in series [1] came to 1 µg/mL (≈ 0.8 µM). Moreover, the ED50 in series [2] came to 15 mg/kg. Further, the NLD acute mice in series [3] stood at 10 mg/kg.
With `CC1[C@H](C)OC(=O)C[C@H](O)C[C@H](O)CC[C@@H](O)[C@H](O)C[C@H](O)C[C@]2(O)C[C@H](O)C(C(=O)NCCCN3CCOCC3)C(C[C@@H](OC3O[C@H](C)[C@@H](O)[C@H](NC[C@@]4(O)OC[C@@H](O)[C@H](O)[C@@H]4O)[C@@H]3O)/C=C/C=C/C=C/C=C/C=C/C=C/C=C/[C@H](C)[C@H]1O)O2` (some centres unmarked) [Compound 111], in series [1], the minimum inhibitory concentration (MIC) worked out at 2.7 µg/mL (≈ 2.23 µM). For the same molecule, in series [2], the ED50 was 7 mg/kg. Moreover, the NLD acute mice in series [3] is 20 mg/kg. The NOAEL at 2 week in series [4] (NOAEL 2 week mice clinical) is under 7 mg/kg; in series [4] (NOAEL 2 week mice histological) it was 7 mg/kg.
For the molecule `CC1[C@H](C)OC(=O)C[C@H](O)C[C@H](O)CC[C@@H](O)[C@H](O)C[C@H](O)C[C@]2(O)C[C@H](O)C(C(=O)N3CCN(C)CC3)C(C[C@@H](OC3O[C@H](C)[C@@H](O)[C@H](NC[C@@]4(O)OC[C@@H](O)[C@H](O)[C@@H]4O)[C@@H]3O)/C=C/C=C/C=C/C=C/C=C/C=C/C=C/[C@H](C)[C@H]1O)O2` (some centres unmarked) [Compound 113], in series [1], the MIC stood at 3.3 µg/mL (≈ 2.82 µM). For the same molecule, the ED50 in series [2] was 2 mg/kg. Also, in series [3], the NLD acute mice amounted to 7.5 mg/kg. The no-observed-adverse-effect level (NOAEL) at 2 week in series [4] (NOAEL 2 week mice clinical) is over 5 mg/kg; in series [4] (NOAEL 2 week mice histological), 1.25 mg/kg.
For `CCN1CCN(C(=O)C2C3C[C@@H](OC4O[C@H](C)[C@@H](O)[C@H](NC[C@@]5(O)OC[C@@H](O)[C@H](O)[C@@H]5O)[C@@H]4O)/C=C/C=C/C=C/C=C/C=C/C=C/C=C/[C@H](C)[C@@H](O)C(C)[C@H](C)OC(=O)C[C@H](O)C[C@H](O)CC[C@@H](O)[C@H](O)C[C@H](O)C[C@](O)(C[C@@H]2O)O3)CC1` (some centres unmarked) [Compound 133], the median effective dose (ED50) in series [2] turned out to be 4.1 mg/kg. Moreover, the NLD acute mice in series [3] stood at 15 mg/kg. The no observed adverse effect level (NOAEL) at 2 week in series [4] (NOAEL 2 week mice clinical) is under 5 mg/kg.
With `CC1[C@H](C)OC(=O)C[C@H](O)C[C@H](O)CC[C@@H](O)[C@H](O)C[C@H](O)C[C@]2(O)C[C@H](O)C(C(=O)N3CCN(Cc4ccccc4)CC3)C(C[C@@H](OC3O[C@H](C)[C@@H](O)[C@H](NC[C@@]4(O)OC[C@@H](O)[C@H](O)[C@@H]4O)[C@@H]3O)/C=C/C=C/C=C/C=C/C=C/C=C/C=C/[C@H](C)[C@H]1O)O2` (some centres unmarked) [Compound 134], the minimum inhibitory concentration (MIC) in series [1] worked out at 1 µg/mL (≈ 0.804 µM). For the same molecule, the 50% effective dose (ED50) in series [2] is over 30 mg/kg. In addition, in series [3], the NLD acute mice came to 30 mg/kg.
As for `CC1[C@H](C)OC(=O)C[C@H](O)C[C@H](O)CC[C@@H](O)[C@H](O)C[C@H](O)C[C@]2(O)C[C@H](O)C(C(=O)N3CCN(CCO)CC3)C(C[C@@H](OC3O[C@H](C)[C@@H](O)[C@H](NC[C@@]4(O)OC[C@@H](O)[C@H](O)[C@@H]4O)[C@@H]3O)/C=C/C=C/C=C/C=C/C=C/C=C/C=C/[C@H](C)[C@H]1O)O2` (some centres unmarked) [Compound 135], in series [1], the MIC is 6.3 µg/mL (≈ 5.26 µM). Besides, the median effective dose (ED50) in series [2] is 1.6 mg/kg. Further, in series [3], the NLD acute mice is listed as 10 mg/kg. For the same molecule, the results for the NOAEL at 2 week in series [4] (NOAEL 2 week mice clinical) and in series [4] (NOAEL 2 week mice histological) were 1.25 mg/kg and over 5 mg/kg, respectively.
On to `CC1[C@H](C)OC(=O)C[C@H](O)C[C@H](O)CC[C@@H](O)[C@H](O)C[C@H](O)C[C@]2(O)C[C@H](O)C(C(=O)N3CCN(c4ccccc4)CC3)C(C[C@@H](OC3O[C@H](C)[C@@H](O)[C@H](NC[C@@]4(O)OC[C@@H](O)[C@H](O)[C@@H]4O)[C@@H]3O)/C=C/C=C/C=C/C=C/C=C/C=C/C=C/[C@H](C)[C@H]1O)O2` (some centres unmarked) [Compound 136], for which the MIC in series [1] was determined as 0.4 µg/mL (≈ 0.325 µM). Moreover, the ED50 in series [2] came out at 40.2 mg/kg. In addition, the NLD acute mice in series [3] is reported as over 15 mg/kg.
